# In paper PMC6930659, “Antiprotozoal Activity of Turkish Origanum onites Essential Oil and Its Components” (Molecules, 2019):
# Read-outs that look alike come from different tables or passages of the source.
# Columns and labels:
# [1] = system: L. donovani (strain MHOM/ET/67/L82) amastigotes; assay: In vitro assay for Leishmania donovani axenic amastigotes (resazurin); assay type: cell-based; conditions: axenic amastigotes, 72 h, means of two determinations ± deviation, read-out: IC50 Leishmania donovani
# Method: Amastigotes of L. donovani (strain MHOM/ET/67/L82) were grown in axenic culture at 37 °C in SM medium at pH 5.4 supplemented with 10% heat-inactivated FBS under an atmosphere of 5% CO2. Culture medium (100 μL) with 10^5 amastigotes from axenic culture with or without a serial drug dilution was seeded in 96 well microtiter plates. Serial drug was prepared covering a range of dilutions from 90 to 0.123 μg/mL. After 72 h of incubation, the plates were inspected under an inverted microscope to assure growth of the controls and sterile conditions. Subsequently, 10 μL resazurin solution (12.5 mg resazurin dissolved in 100 mL double-distilled water) was added to each well and the plates were incubated for another 2 h. The plates were then read with a Spectramax Gemini XS microplate fluorometer (Molecular Devices Cooperation, Sunnyvale, CA, USA) using an excitation wavelength of 536 nm and an emission wavelength of 588 nm. Data were analyzed using the software Softmax Pro (Molecular Devices Cooperation, Sunnyvale, CA, USA). A decrease of fluorescence (=inhibition) was expressed as percentage of the fluorescence of control cultures and plotted against the drug concentrations. From the sigmoidal inhibition curves, the IC50 values were calculated. Miltefosine was used as a reference drug.
# [2] = In vitro assay for cytotoxicity on mammalian cells (resazurin); assay type: cell-based, rat
# Method: (§1) Assays were performed in 96 well microtiter plates (4 × 10^4 L6 cells/well), each well containing 100 μL of RPMI 1640 medium supplemented with 1% L-glutamine (200 mM) and 10% FBS. L6 cells are a primary cell line derived from rat skeletal myoblasts. Serial drug dilutions of seven 3-fold dilution steps covering a range from 90 to 0.123 μg/mL were prepared. After 72 h of incubation, the plates were inspected under an inverted microscope to assure growth of the controls and sterile conditions. Resazurin solution (10 μL) (12.5 mg resazurin in 100 mL double-distilled water) was then added to each well and the plates incubated for another 2 h. The plates were then read with a Spectramax Gemini XS microplate fluorometer (Molecular Devices Cooperation, Sunnyvale, CA, USA) using an excitation wavelength of 536 nm and an emission wavelength of 588 nm. Data were analyzed using the microplate reader software Softmax Pro (Molecular Devices Cooperation, Sunnyvale, CA, USA). From the sigmoidal inhibition curves, the IC50 values were calculated. Podophyllotoxin was the positive control.
# [3] = system: Trypanosoma brucei rhodesiense STIB 900; assay: In vitro assay for Trypanosoma brucei rhodesiense (resazurin); assay type: cell-based
# Method: Trypanosoma brucei rhodesiense STIB 900 strain, isolated in 1982 from a human patient in Tanzania and, after several mouse passages, cloned and adapted to axenic culture conditions, was used in this assay. Minimum essential medium (50 μL) supplemented with 25 mM HEPES, 1 g/L additional glucose, 1% MEM non-essential amino acids (100×), 0.2 mM 2-mercaptoethanol, 1 mM Na-pyruvate, and 15% heat inactivated horse serum was added to each well of a 96 well microtiter plate. Serial drug dilutions of seven 3-fold dilution steps covering a range from 90 to 0.123 μg/mL were prepared, and then 4 × 10^4 blood stream forms of T. b. rhodesiense STIB 900 in 50 μL were added to each well and the plate was incubated at 37 °C under a 5% CO2 atmosphere for 72 h. Resazurin solution (resazurin, 12.5 mg in 100 mL double-distilled water) (10 μL) was then added to each well and incubated for a further 2–4 h. At the end of the assay, the plates were read with a Spectramax Gemini XS microplate fluorometer (Molecular Devices Cooperation, Sunnyvale, CA, USA) using an excitation wavelength of 536 nm and an emission wavelength of 588 nm. Data were analyzed using the microplate reader software Softmax Pro (Molecular Devices Cooperation, Sunnyvale, CA, USA). Melarsoprol was used as standard drug.
# [4] = system: T. cruzi Tulahuen strain C2C4; assay: In vitro assay for Trypanosoma cruzi in L-6 cells (β-galactosidase/CPRG); assay type: cell-based; conditions: Trypanosoma cruzi, L6; Tulahuen C2C4 in L-6 cells, 96 h; highest concentration tested 90 μg/mL; means of two determinations ± deviation
# Method: Rat skeletal myoblasts (L-6 cells) were seeded in 96 well microtiter plates (2000 cells/well) in 100 μL RPMI 1640 medium with 10% FBS and 2 mM L-glutamine for 24 h. After that, the medium was removed and replaced by 100 μL per well containing 5000 trypomastigote forms of T. cruzi Tulahuen strain C2C4, containing the β-galactosidase (Lac Z) gene. The medium was removed from the wells after 48 h, and replaced with 100 μL fresh medium with or without a serial drug dilution of seven 3-fold dilution steps covering a range from 90 to 0.123 μg/mL. After 96 h of incubation, the plates were inspected under an inverted microscope to assure growth of the controls and sterility, after which the substrate CPRG/Nonidet ([…]) was added to all wells. A color reaction developed within 2–6 h and could be read photometrically at 540 nm. Data were transferred into the graphic program Softmax Pro (Molecular Devices Cooperation, Sunnyvale, CA, USA) and the IC50 values were calculated from the sigmoidal dose response curves. Benznidazole was the reference drug.
# P. falciparum K1 strain = assay: In vitro assay for Plasmodium falciparum ([3H]-hypoxanthine incorporation); assay type: cell-based
# Method: Activity against the erythrocytic stages of P. falciparum was determined using an in vitro modified [^3H]-hypoxanthine incorporation assay, using the chloroquine- and pyrimethamine-resistant K1 strain [68]. Compounds were dissolved in DMSO at 10 mg/mL and further diluted in medium before added to parasite cultures incubated in RPMI 1640 medium without hypoxanthine, supplemented with HEPES (5.94 g/l), NaHCO3 (2.1 g/L), neomycin (100 U/mL), AlbumaxR (5 g/L), and washed human red cells A+ at 2.5% haematocrit (0.3% parasitaemia). Serial drug dilutions of seven 3-fold dilution steps covering a range from 90 to 0.123 μg/mL were prepared. The 96 well plates were incubated in a humidified atmosphere at 37 °C; 4% CO2, 3% O2, 93% N2. After 48 h 50 μL of ^3H-hypoxanthine (=0.5 μCi) was added to each well of the plate. The plates were incubated for a further 24 h under the same conditions. The plates were then harvested with a Betaplate™ cell harvester (Wallac, Zurich, Switzerland), and the red blood cells transferred onto a glass fiber filter then washed with distilled water. The dried filters were inserted into a plastic foil with 10 mL of scintillation fluid, and counted in a Betaplate™ liquid scintillation counter (Wallac, Zurich, Switzerland). […] IC50 values were calculated from the sigmoidal inhibition curves using Microsoft Excel. Chloroquine was used as positive control drug.
# L6 cells = assay: In vitro assay for cytotoxicity on mammalian cells (resazurin); assay type: cell-based, rat; conditions: rat
# Method: as §1
# Leishmania = system: Leishmania; set-up: method as in PMID 15793164; conditions: oral administration in mice for 30 days; cited from earlier work
# [5] = K1 strain (chloroquine- and pyrimethamine-resistant), erythrocytic stages, means of two determinations ± deviation, read-out: IC50 Plasmodium falciparum
# [6] = L6 cells (rat skeletal myoblasts), rat skeletal myoblasts, 72 h, means of two determinations ± deviation, read-out: IC50 Cytotoxicity L6 cells
# [7] = Trypanosoma brucei, 72 h, STIB 900 blood stream forms, 72 h; means of two independent determinations ± deviation from the mean; read-out: IC50 Trypanosoma brucei rhodesiense
SMILES,IC50 [1],IC50 [4],IC50 (P. falciparum K1 strain; [5]),"IC50 at 72 h [2, 6]","IC50 [3, 7]",also measured
CC1=CCC(C(C)C)=CC1 [γ-Terpinene],> 90 mg/L,> 90 mg/L,> 20 mg/L,,,"IC50 ([2]; rat skeletal myoblasts, 72 h, means of two determinations ± deviation, read-out: IC50 Cytotoxicity L6 cells): > 90 mg/L; IC50 ([3]; Trypanosoma brucei; STIB 900 blood stream forms, 72 h; means of two independent determinations ± deviation from the mean; read-out: IC50 Trypanosoma brucei rhodesiense): 32.9 ± 26 mg/L"
"O=C(Cn1ccnc1[N+](=O)[O-])NCc1ccccc1 [benznidazole, reference compound]",,0.44 mg/L,,,,
CC1=CC(=O)C(C(C)C)=CC1=O [Thymoquinone],1.7 ± 0.16 mg/L,18.2 ± 4.3 mg/L,2.6 ± 0.16 mg/L,20.5 ± 8.1 mg/L,0.11 ± 0.02 mg/L,fold higher cytotoxicity on L6 cells than thymol (L6 cells): 2.5 fold
COc1cc(C(C)C)ccc1C [Carvacrol Methyl Ether],17.5 ± 1.7 mg/L,> 90 mg/L,> 20 mg/L,,17 ± 22 mg/L,IC50 at 72 h ([2]; rat): > 90 mg/L
"CCN(CC)CCCC(C)Nc1ccnc2cc(Cl)ccc12 (centres unmarked) [chloroquine, reference compound]",,,,,,"IC50 (P. falciparum K1 strain; K1, read-out: IC50 Plasmodium falciparum): 0.056 mg/L"
"Nc1nc(N)nc(Nc2ccc([As]3SCC(CO)S3)cc2)n1 (centres unmarked) [melarsoprol, reference compound]",,,,,,"IC50 ([3]; Trypanosoma brucei, 72 h, read-out: IC50 Trypanosoma brucei rhodesiense): 0.003 mg/L"
C=CC(=C)CCC=C(C)C [Myrcene],48.2 ± 12.7 mg/L,> 90 mg/L,> 20 mg/L,> 90 mg/L,22 ± 14.8 mg/L,
C=C[C@](C)(O)CCC=C(C)C [L-Linalool],86.3 ± 2.8 mg/L,> 90 mg/L,> 20 mg/L,,3.6 ± 2.5 mg/L,IC50 at 72 h ([2]; rat): > 90 mg/L
Cc1ccc(C(C)C)cc1 [p-Cymene],> 90 mg/L,> 90 mg/L,> 20 mg/L,> 90 mg/L,45 ± 27 mg/L,
CNC[C@H](O)[C@@H](O)[C@H](O)[C@H](O)CO.[O]=[Sb](=[O])[OH] [glucantime],,,,,,reduction of the parasite burden (Leishmania): 100%
